Source: patent publication US20240409557A1, “5,6-FUSED AND 6,6-FUSED BICYCLIC ALCOHOLS AND ETHERS AND COMPOSITIONS FOR USE AS 15-PROSTAGLANDIN DEHYDROGENASE MODULATORS” (AMGEN INC., priority 2023, published 2024)

Experiments:
[1] = molecular target: T1, human recombinant 15-PGDH (Homo sapiens, UniProt P15428); experiment: Recombinant 15-PGDH enzymatic inhibition assay (PGDH-Lumi, NADH signal); assay type: biochemical; conditions: recombinant 15-PGDH; 15 min pre-incubation, 60 min reaction with PGE2 and NAD+, NADH signal
T1 sequence (P15428 1-266): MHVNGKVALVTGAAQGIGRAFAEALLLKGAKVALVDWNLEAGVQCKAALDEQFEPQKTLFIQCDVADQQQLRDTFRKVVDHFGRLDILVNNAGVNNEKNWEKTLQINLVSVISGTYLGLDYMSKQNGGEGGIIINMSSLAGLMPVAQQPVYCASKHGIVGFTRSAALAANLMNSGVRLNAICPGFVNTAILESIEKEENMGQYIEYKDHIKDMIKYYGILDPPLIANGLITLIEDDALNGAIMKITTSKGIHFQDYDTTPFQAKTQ
In short: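 Recombinant 15-PGDH pre-incubated 15 min at room temperature with compound (22 concentrations, 2-fold dilutions) in 50 mM Tris pH 7.5, 0.01% Tween-20, […].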

[2] = molecular target: T2, 15-PGDH in A549 cells (Homo sapiens, UniProt P15428); experiment: A549 cellular 15-PGDH assay (PGE2 accumulation, HTRF); assay type: cell-based; conditions: interleukin-stimulated, inhibitor 24 hrs, PGE2 by competitive HTRF, read-out: A549 Cell Assay IC50
T2 construct: endogenous in cells; host or cells: A549
T2 sequence (P15428 1-266): T1 sequence (P15428 1-266)
Text: This assay was used for the quantification of IL-13 induced Native Prostaglandin E2 (PGE2) produced by A549 cells (epithelial cells from lung carcinoma) in cell culture supernatants. […] PGE2 was detected in a competitive HTRF assay by using anti PGE2 antibody labeled with Europium cryptate, and PGE2 labeled with […]. The PGE2 present in the sample competes with the binding between the two HTRF detection solutions (reagents) and thereby prevents FRET from occurring. The specific signal is inversely proportional to the PGE2 concentration. From this binding data, IC50 values were calculated.

IC50 [1] [nM]	IC50 [2] [nM]	SMILES
0.291	0.69	O[C@@H](c1cc2ccc(-c3ccc4nccnc4c3)nc2s1)C1CC(F)(F)C1 (single isomer, unassigned) [Compound B52R]
1.6	11.7	O[C@H](c1cc2ccc(-c3ccc4nccnc4c3)nc2s1)C1CC(F)(F)C1 (single isomer, unassigned) [Compound B52S]
0.222	0.354	CCn1cc2cc(-c3ccc4cc([C@H](O)C5CC(F)(F)C5)sc4n3)cnc2n1 (single isomer, unassigned) [Compound B53R]
0.436	0.288	CCn1cc2cc(-c3ccc4cc([C@@H](O)C5CC(F)(F)C5)sc4n3)cnc2n1 (single isomer, unassigned) [Compound B53S]
4.11	11.8	CCC[C@@H](O)c1cc2ccc(-c3cnc4nn(C)cc4c3)cc2s1 (single isomer, unassigned) [Compound B54R]
0.308	0.657	Cc1cn2ccc(-c3ccc4cc([C@H](O)C5CC(F)(F)C5)sc4n3)cc2n1 (single isomer, unassigned) [Compound B55R]
2.64	11.8	Cc1cn2ccc(-c3ccc4cc([C@@H](O)C5CC(F)(F)C5)sc4n3)cc2n1 (single isomer, unassigned) [Compound B55S]
0.603	2.47	CC(C)n1cc2cc(-c3ccc4cc([C@H](O)C5CC(F)(F)C5)sc4n3)ccc2n1 (single isomer, unassigned) [Compound B56R]
0.32	0.657	O[C@@H](c1cc2ccc(-c3cncnc3)nc2s1)C1CC(F)(F)C1 (single isomer, unassigned) [Compound B57R]
0.24	1.41	Cn1cc2cc(-c3ccc4cc([C@H](O)C5CCCC5)sc4c3)cnc2n1 (single isomer, unassigned) [Compound B58R]
4.75	7.79	COCC[C@@H](O)c1cc2ccc(-c3cnc4nn(C)cc4c3)cc2s1 (single isomer, unassigned) [Compound B59R]
1.17	3.38	Cn1cc2cc(-c3ccc4cc([C@H](O)CCC(F)(F)F)sc4c3)cnc2n1 (single isomer, unassigned) [Compound B60R]
0.325	0.311	CC(C)n1cc2cc(-c3ccc4cc([C@H](O)C5CC(F)(F)C5)sc4n3)cnc2n1 (single isomer, unassigned) [Compound B64R]
0.597	0.483	CC(C)n1cc2cc(-c3ccc4cc([C@@H](O)C5CC(F)(F)C5)sc4n3)cnc2n1 (single isomer, unassigned) [Compound B64S]
0.381	0.263	CC(C)n1ncc2cc(-c3ccc4cc([C@H](O)C5CC(F)(F)C5)sc4n3)cnc21 (single isomer, unassigned) [Compound B65R]
0.396	0.303	[2H][C@](O)(c1cc2ccc(-c3cnc4nn(C)cc4c3)nc2s1)C1CCOCC1 (single isomer, unassigned) [Compound B66R]
0.216	0.0479	Cn1cc2cc(-c3ccc4nc([C@H](O)C5CC(F)(F)C5)sc4n3)cnc2n1 (single isomer, unassigned) [Compound B72R]
9.58	5.27	Cn1cc2cc(-c3ccc4nc([C@@H](O)C5CC(F)(F)C5)sc4n3)cnc2n1 (single isomer, unassigned) [Compound B72S]
0.412	0.061	Cn1cc2cc(-c3ccc4sc([C@H](O)C5CC(F)(F)C5)cc4n3)cnc2n1 (single isomer, unassigned) [Compound B73R]
0.791	0.863	Cn1cc2cc(-c3ccc4sc([C@@H](O)C5CC(F)(F)C5)cc4n3)cnc2n1 (single isomer, unassigned) [Compound B73S]
4.76	0.494	Cn1cc2cc(-c3ccc4sc([C@H](O)C5CC(F)(F)C5)nc4n3)cnc2n1 (single isomer, unassigned) [Compound B74R]
24.1	4.48	Cn1cc2cc(-c3ccc4sc([C@@H](O)C5CC(F)(F)C5)nc4n3)cnc2n1 (single isomer, unassigned) [Compound B74S]
0.382	0.0162	Cn1cc2cc(-c3ncc4cc([C@H](O)C5CC(F)(F)C5)sc4n3)cnc2n1 (single isomer, unassigned) [Compound B75R]

IC50 [1] [nM]	IC50 [2] [nM]	SMILES
25.4	12.5	Cn1cc2cc(-c3ncc4cc([C@@H](O)C5CC(F)(F)C5)sc4n3)cnc2n1 (single isomer, unassigned) [Compound B75S]
4.93	1.29	Cn1cc2cc(-c3cnc4sc([C@H](O)C5CC(F)(F)C5)cc4c3)cnc2n1 (single isomer, unassigned) [Compound B77R]
154	11.4	Cn1cc2cc(-c3cnc4sc([C@@H](O)C5CC(F)(F)C5)cc4c3)cnc2n1 (single isomer, unassigned) [Compound B77S]
17	2.49	Cn1cc2cc(-c3cnc4cc([C@H](O)C5CC(F)(F)C5)sc4c3)cnc2n1 (single isomer, unassigned) [Compound B78R]
896	57.1	Cn1cc2cc(-c3cnc4cc([C@@H](O)C5CC(F)(F)C5)sc4c3)cnc2n1 (single isomer, unassigned) [Compound B78S]
0.399	0.0094	[2H][C@](O)(c1cc2ccc(-c3cnc4nn(C)cc4c3)nc2s1)C1CC(F)(F)C1 (single isomer, unassigned) [Compound B79R]
0.706	0.37	[2H][C@@](O)(c1cc2ccc(-c3cnc4nn(C)cc4c3)nc2s1)C1CC(F)(F)C1 (single isomer, unassigned) [Compound B79S]
1.16	0.339	Cn1cc2cc(-c3ccc4cc([C@H](CO)C5CC(F)(F)C5)sc4n3)cnc2n1 (single isomer, unassigned) [Compound B80S]
0.296	0.0103	Cc1c([C@H](O)C2CC(F)(F)C2)sc2nc(-c3cnc4nn(C)cc4c3)ccc12 (single isomer, unassigned) [Compound B83R]
5.13	1.11	Cc1c([C@@H](O)C2CC(F)(F)C2)sc2nc(-c3cnc4nn(C)cc4c3)ccc12 (single isomer, unassigned) [Compound B83S]
0.47	0.492	Cn1cc2cc(-c3ccc4cc([C@H](O)[C@H]5C[C@@H](C(F)(F)F)C5)sc4n3)cnc2n1 (single isomer, unassigned) [Compound B84RC]
0.365	0.515	Cn1cc2cc(-c3ccc4cc([C@H](O)[C@H]5C[C@H](C(F)(F)F)C5)sc4n3)cnc2n1 (single isomer, unassigned) [Compound B84RT]
1.53	1.45	Cn1cc2cc(-c3ccc4cc([C@@H](O)[C@H]5C[C@@H](C(F)(F)F)C5)sc4n3)cnc2n1 (single isomer, unassigned) [Compound B84SC]
1.21	0.642	Cn1cc2cc(-c3ccc4cc([C@@H](O)[C@H]5C[C@H](C(F)(F)F)C5)sc4n3)cnc2n1 (single isomer, unassigned) [Compound B84ST]
0.47	0.704	Cn1cc2cc(-c3ccc4cc([C@H](O)[C@H]5CC5(F)F)sc4n3)cnc2n1 (single isomer, unassigned) [Compound B85RR]
0.379	0.517	Cn1cc2cc(-c3ccc4cc([C@H](O)[C@@H]5CC5(F)F)sc4n3)cnc2n1 (single isomer, unassigned) [Compound B85RS]
1.22	1.5	Cn1cc2cc(-c3ccc4cc([C@@H](O)[C@H]5CC5(F)F)sc4n3)cnc2n1 (single isomer, unassigned) [Compound B85SR]
3.32	2.83	Cn1cc2cc(-c3ccc4cc([C@@H](O)[C@@H]5CC5(F)F)sc4n3)cnc2n1 (single isomer, unassigned) [Compound B85SS]
0.504	0.499	Cn1cc2cc(-c3ccc4cc([C@H](O)C5(C)CC(F)(F)C5)sc4n3)cnc2n1 (single isomer, unassigned) [Compound B86R]
286	1.61	Cn1cc2cc(-c3ccc4cc([C@@H](O)C5(C)CC(F)(F)C5)sc4n3)cnc2n1 (single isomer, unassigned) [Compound B86S]
0.494	0.667	Cn1cc2cc(-c3ccc4cc([C@H](O)C56CC(C5)C6)sc4n3)cnc2n1 (single isomer, unassigned) [Compound B87R]
28.8	0.572	Cn1cc2cc(-c3ccc4cc([C@@H](O)C56CC(C5)C6)sc4n3)cnc2n1 (single isomer, unassigned) [Compound B87S]
